Legend:
[1] = test system: avian pathogenic Escherichia coli (APEC); assay: APEC levels in GI tract of commercial broilers at 12-15 days, with and without in ovo gentamycin (Example 2); format: in vivo; conditions: GI tract of broilers at 12-15 days of age
[2] = test system: avian pathogenic Escherichia coli (APEC); format: in vivo; conditions: 3 days of age; ½ dose in ovo gentamycin; all birds treated with the product
[3] = test system: inflammatory cytokine gene expression (MIP2, TNFα, IL-6) in IEC-6 rat intestinal epithelial cells; assay: Inflammatory cytokine gene expression (qPCR) in IEC-6 cells with and without LPS challenge (Example 6); format: cell-based; conditions: LPS alone, 1 hr at 37° C.

Row | Substance | birds with detectable levels of APEC [1] | average APEC level ([1]; ten birds per treatment) | APEC levels, gentamycin-treated vs untreated birds [2] | increase in gene expression of all three inflammatory cytokines (MIP2, TNFα, IL-6) relative to unstimulated control cells [3] [fold]
1 | gentamycin | 2 out of 10 birds | 6.6×10^1 CFU/g | not statistically different | 
2 | Lipopolysaccharide |  |  |  | > 50

Source: US11298383B2, “Lactobacillus and bacillus based direct fed microbial treatment for poultry and method of use” (priority 2016, dated 2022)
